Assay results taken from the OligoGym collection.
Several values for one entry are separate records, joined by “and”; a condition that tells them apart may be missing. Equal values may be shown once. After the bases stand the sugars from the 5' end (letter, count) and the backbone: PS all phosphorothioate, else s phosphorothioate and o phosphodiester by linkage. Methylation of C is not given here. e = 2'-O-(2-methoxyethyl) (MOE); k = constrained ethyl (cEt); d = 2'-deoxy (DNA)

target: IRF4; settings: ASO, MM.1R, 0.0625 µM

Sequence | target mRNA inhibition
AGCAGTGATGTCAGGT (sugars kddddddddddkekek, PS) | 37%
CTGAGTTGTACAGGAC (sugars k3 d10 k3, PS) | 4%

same assay, conditions: ASO, MM.1R, 0.074 µM

Sequence | target mRNA inhibition
GCAGTGATGTCAGGTT (sugars kkdddddddddkekek, PS) | 14%
GGAAGTTTACACTGGA (sugars kkdddddddddekeke, PS) | 4%

same assay, conditions: ASO, MM.1R, 0.222 µM

Sequence | target mRNA inhibition
GCAGTGATGTCAGGTT (sugars kkdddddddddkekek, PS) | 37%
GGAAGTTTACACTGGA (sugars kkdddddddddekeke, PS) | 15%

same assay, conditions: ASO, MM.1R, 0.25 µM

Sequence | target mRNA inhibition
AGCAGTGATGTCAGGT (sugars kddddddddddkekek, PS) | 50%
CTGAGTTGTACAGGAC (sugars k3 d10 k3, PS) | 22%

same assay, conditions: ASO, MM.1R, 0.666 µM

Sequence | target mRNA inhibition
GCAGTGATGTCAGGTT (sugars kkdddddddddkekek, PS) | 60%
GGAAGTTTACACTGGA (sugars kkdddddddddekeke, PS) | 40%

same assay, conditions: ASO, MM.1R, 1 µM

Sequence | target mRNA inhibition
AGCAATTAGCTCTTCT (sugars k3 d10 k3, PS) | 11%
CTTGATAAAGGCTGAA (sugars kdddddddddkekeke, PS) | 5%
AAGCTTGATAAAGGCT (sugars kddddddddddkekek, PS) | 3%
CAAGCAGTGATGTCAG (sugars kkddddddddddkeke, PS) | 20% and 26%
GAAGCATTTTATCATC (sugars kddddddddddkekek, PS) | -12%
TGTAACTGACTAACAG (sugars k3 d10 k3, PS) | -31%
GGCTCTTGATGTGAAC (sugars k3 d10 k3, PS) | -12%
CGCCCAATCACCTTCC (sugars k3 d10 k3, PS) | -19%
ACCTCAGTTTGTGAAG (sugars kddddddddddkekek, PS) | 18%
AGCAGTGATGTCAGGT (sugars kddddddddddkekek, PS) | 77% and 67% and 68%
CTTGATAAAGGCTGAA (sugars kddddddddddkekek, PS) | 17%
CCAGAACTAATGTCCC (sugars k3 d10 k3, PS) | 6%
TGTTACCGATGCTTCA (sugars kkdddddddddkdkdk, PS) | 35% and 26%
ACGGACTGGAACATTG (sugars k3 d10 k3, PS) | 38%
CGCGGAGGACCTCGCC (sugars k3 d10 k3, PS) | -7%
CTAGACAGAGAGTCCG (sugars k3 d10 k3, PS) | 5%
GCAGTGATGTCAGGTT (sugars kkdddddddddkekek, PS) | 69%
CTGGTAACTGTATGGA (sugars k3 d10 k3, PS) | 17%
ACACTTTTAGAGAGGA (sugars k2 d9 e3 k2, PS) | 21%
GTTACTCACGAGCACC (sugars k3 d10 k3, PS) | -17%
ACAGTGACTTGCATCC (sugars kkddddddddddkeke, PS) | 30%

Sequence | target mRNA inhibition
ACAGTCCACTCCACCC (sugars k3 d10 k3, PS) | 14%
TCAGTTTGTGAAGCAT (sugars kdddddddddkekeke, PS) | 9%
TGTGTATTACTCTTAG (sugars k2 d9 e3 k2, PS) | 41% and 24%
CAGTAAACGCAAGTCT (sugars k3 d10 k3, PS) | -14%
ATTATATACTGGTTGG (sugars kkdddddddddkdkdk, PS) | 28%
CCACAGTGAAGTCGGG (sugars k3 d10 k3, PS) | 6%
AAGCAGTGATGTCAGG (sugars k2 d9 e3 k2, PS) | 62% and 51%
GATGTGATAGCTGAGC (sugars kkdddddddddekeke, PS) | 53%
TCCAACCTTTATGATT (sugars k3 d10 k3, PS) | -3%
TTGATGTGATAGCTGA (sugars kddddddddddkekek, PS) | 12%
AGTTCATGTAAAGTCT (sugars kkdddddddddkekek, PS) | 42% and 31%
CTGAGTTGTACAGGAC (sugars k3 d10 k3, PS) | 55% and 52%
TGATGGAGAAACGAGC (sugars k3 d10 k3, PS) | -2%
ATAGTAAGTTCTAGTC (sugars k3 d10 k3, PS) | 11%
TAGTATGAGAAACGGC (sugars kkdddddddddkdkdk, PS) | 39%
CTATAGTGTTCCAGGA (sugars kkkdddddddddkeke, PS) | 22%
TTCACACTGCCGTGAT (sugars k3 d10 k3, PS) | -12%
AAGTCTACAGCCCCAG (sugars k3 d10 k3, PS) | -5%
ATGTTAGCCAATTCCT (sugars k3 d10 k3, PS) | 30% and 33%
AAAGAAACGAGTTGAC (sugars k3 d10 k3, PS) | 14%
GGAAGTTTACACTGGA (sugars kkdddddddddekeke, PS) | 64%

same assay, conditions: ASO, MM.1R, 2 µM

Sequence | target mRNA inhibition
GCAGTGATGTCAGGTT (sugars kkdddddddddkekek, PS) | 81%
GGAAGTTTACACTGGA (sugars kkdddddddddekeke, PS) | 64%

same assay, conditions: ASO, MM.1R, 4 µM

Sequence | target mRNA inhibition
AGCAGTGATGTCAGGT (sugars kddddddddddkekek, PS) | 84%
CTGAGTTGTACAGGAC (sugars k3 d10 k3, PS) | 81%

same assay, conditions: ASO, SK-MEL-28, 4 µM

Sequence | target mRNA inhibition
AAACACCCCTTCTTGT (sugars k3 d10 k3, PS) | -13%
CGTATTTGTCGAGATC (sugars k3 d10 k3, PS) | 50%
TCTATAAGATGTATAC (sugars k3 d10 k3, PS) | 26%
TACTCTTAGGCACATC (sugars k3 d10 k3, PS) | 59%
AAGAAGCACTGGCATC (sugars k3 d10 k3, PS) | 23%
TCTGAGGGTCTGGAAA (sugars k4 d8 k4, PS) | 3%
CATTGGACCCACGAAG (sugars k3 d10 k3, PS) | 28%
CCGGGTTCCTCCACCC (sugars k3 d10 k3, PS) | 9%
GCTCACCGCGCTCATG (sugars k3 d10 k3, PS) | 48%
CAACACGGGAATTTCC (sugars k3 d10 k3, PS) | 55%
CATAGCATTATCTACC (sugars k3 d10 k3, PS) | 43%
AATAGAGGAATGGCGG (sugars k3 d10 k3, PS) | 53%
GTTCTAGGGTCCTCCT (sugars k3 d10 k3, PS) | 50%
GTTGTAAATGAGTCGG (sugars k3 d10 k3, PS) | 87% and 81%
GAACACTTTGAGGTGA (sugars k3 d10 k3, PS) | 14%
AACTTTCACCTGTGGG (sugars k3 d10 k3, PS) | 50%
CGAGAAGAGAGGCTGA (sugars k3 d10 k3, PS) | 7%
AGGTATACTTAAGCAA (sugars k3 d10 k3, PS) | 68%
CACAAGCATAAAAGGT (sugars k3 d10 k3, PS) | 26%
ATAAACACCTCAGCTG (sugars k3 d10 k3, PS) | 21%
CAGCAACTCCCTTGGG (sugars k3 d10 k3, PS) | 23%

Sequence | target mRNA inhibition
TCGAGATCAGTCTCAA (sugars k3 d10 k3, PS) | 58% and 82%
CAGAACTAATGTCCCC (sugars k3 d10 k3, PS) | 69%
GTACTTGCCGCTGTCG (sugars k3 d10 k3, PS) | 27%
ACTAGATTGTAGGACA (sugars k3 d10 k3, PS) | -9%
GACAGATGACATGCTT (sugars k3 d10 k3, PS) | 9%
AACGGAAGTTTACACT (sugars k3 d10 k3, PS) | 59%
CGCTTTCACTAAAGTC (sugars k3 d10 k3, PS) | 71%
AGTTTACACTGGATCT (sugars k3 d10 k3, PS) | 70% and 74%
TCACAGTGATCATCAA (sugars k3 d10 k3, PS) | 43%
GAATGAGGAAGCCGTT (sugars k3 d10 k3, PS) | 39%
GTAGGAGTGTAACTGA (sugars k3 d10 k3, PS) | 41%
TTAAACAGTGCCCAAG (sugars k3 d10 k3, PS) | 21%
TATACTTAAGCAAGTG (sugars k3 d10 k3, PS) | 47%
ACAAATTAAAGAGCGC (sugars k3 d10 k3, PS) | 64%
CAAAGCGGGTTCACAA (sugars k3 d10 k3, PS) | 16%
GAAAGATTCAGCCTCT (sugars k3 d10 k3, PS) | 45%
GCCGTTCCTTTTCAGA (sugars k3 d10 k3, PS) | 62%
TCCATTGGAGGAGGGT (sugars k3 d10 k3, PS) | 33%
CTAGGTTTCAGTTGTA (sugars k3 d10 k3, PS) | 54%
AAGTCATTGCTCTTGT (sugars k4 d8 k4, PS) | 28%
ACCACGCCCCTCTCCA (sugars k3 d10 k3, PS) | 9%

Sequence | target mRNA inhibition
TCCCTAGGTCATACCC (sugars k3 d10 k3, PS) | 58%
GCCAATCAGATGTCAC (sugars k3 d10 k3, PS) | 46%
ATTTATACTGTCTGGT (sugars k3 d10 k3, PS) | 49%
CTGGTTCGCGCTCCGG (sugars k3 d10 k3, PS) | 7%
ACTGAGTACAAACTAA (sugars k3 d10 k3, PS) | 32%
CATAATCCAGTATCTG (sugars k3 d10 k3, PS) | 18%
TTGAAATGGAGCATCC (sugars k3 d10 k3, PS) | 22%
CGCTCATGCCGAACTC (sugars k3 d10 k3, PS) | 11%
GTTCACGAAACACAGT (sugars k3 d10 k3, PS) | 63%
CTAAATCACCCTGGTC (sugars k3 d10 k3, PS) | 47%
CTCCACGCGCGGAGGA (sugars k3 d10 k3, PS) | -1%
AGGAAGTTTACTAACT (sugars k3 d10 k3, PS) | 58%
GATCATCAATGATGGC (sugars k3 d10 k3, PS) | 63%
TTACTTCCCTGAGAAA (sugars k3 d10 k3, PS) | 20%
GTAAGGGCTGCTCATT (sugars k3 d10 k3, PS) | 52%
ACTGGCATCGAGACGG (sugars k3 d10 k3, PS) | 79%
ACACATTTGAGAGCTA (sugars k3 d10 k3, PS) | 69%
GGCCTCCCCAAGGCTA (sugars k3 d10 k3, PS) | 18%
GCCCACTGAGTGTGCA (sugars k3 d10 k3, PS) | 10%
TTAAAGATGCCAGAGG (sugars k3 d10 k3, PS) | 28%
